Reference: patent publication US20160102317A1, “PLANTS HAVING INCREASED TOLERANCE TO HERBICIDES” (BASF SE, priority 2013, published 2016)

What was measured:
[1] = test system: Rhodococcus HPPD (Seq ID 44); experiment: HPPD activity assay, tolerance index; format: biochemical; conditions: Table 12; Rhodococcus (Seq ID 44); normalized to reference SEQ ID NO:53
Protocol: (§1) HPPD produces homogentisic acid and CO2 from 4-hydroxyphenylpyruvate (4-HPP) and 02. The activity assay for HPPD is based on the analysis of homogentisic acid by reversed phase HPLC. The assay mixture can contain 150 mM potassium phosphate buffer pH 7.0, 50 mM L-ascorbic acid, 100 μM Catalase (Sigma-Aldrich), 1 μM FeSO4 and 0.2 units of purified HPPD enzyme in a total volume of 505 μl. 1 unit is defined as the amount of enzyme that is required to produce 1 nmol of HGA per minute at 20° C.
(§2) After a preincubation of 30 min the reaction is started by adding 4-HPP to a final concentration of 0.05 mM. The reaction is allowed to proceed for 45 min at room temperature. The reaction is stopped by the addition of 50 μl of 4.5 M phosphoric acid. The sample is filtered using a […] pore size PVDF filtration device.
(§3) 5 μl of the cleared sample is analyzed on an UPLC HSS T3 column (particle size 1.8 μm, dimensions 2.1×50 mm; Waters) by isocratic elution using 90% 20 mM NaH2PO4 pH 2.2, 10% methanol (v/v).
(§4) HGA is detected electrochemically at 750 mV (mode: DC; polarity: positive) and quantified by integrating peak areas (Empower software; Waters).
(§5) Inhibitors are dissolved in DMSO (dimethylsulfoxide) to a concentration of 0.5 mM. From this stock solution serial five-fold dilutions are prepared in DMSO, which are used in the assay. The respective inhibitor solution accounts for 1% of the assay volume. Thus, final inhibitor concentrations range from 5 μM to 320 μM, respectively. […] IC50 values are calculated using non-linear regression.
(§6) Using methods which are described in the above examples or well known in the art, purified, recombinant wild-type HPPD enzymes are characterized with respect to their kinetic properties and sensitivity towards HPPD inhibiting herbicides. Apparent michaelis constants (Km) and maximal reaction velocities (Vmax) are calculated by non-linear regression with the software GraphPad Prism 5 (GraphPad Software, La Jolla, USA) using a substrate inhibition model. […] Weighted means (by standard error) of Km and IC50 values are calculated from at least three independent experiments. […]

[2] = test system: Rhodococcus HPPD (Seq ID 46); experiment: HPPD activity assay, tolerance index; format: biochemical; conditions: Table 12; Rhodococcus (Seq ID 46); normalized to reference SEQ ID NO:53
Protocol: as §1, §2, §3, §4, §5, §6

Synechococcus HPPD = experiment: HPPD activity assay, tolerance index; format: biochemical; conditions: Table 12, normalized to reference SEQ ID NO:53
Protocol: as §1, §2, §3, §4, §5, §6

Picrophilus HPPD = experiment: HPPD activity assay, tolerance index; format: biochemical, Picrophilus torridus; conditions: Table 12, normalized to reference SEQ ID NO:53
Protocol: as §1, §2, §3, §4
(§7) Inhibitors are dissolved in DMSO (dimethylsulfoxide) to a concentration of 0.5 mM. From this stock solution serial five-fold dilutions are prepared in DMSO, which are used in the assay. […] IC50 values are calculated using non-linear regression. […]

HPPD Seq ID 67 = experiment: HPPD activity assay, tolerance index; format: biochemical, Zea mays; conditions: Table 12, normalized to reference SEQ ID NO:53
Protocol: as §1, §2, §3, §4, §7

HPPD Seq ID 69 = experiment: HPPD activity assay, tolerance index; format: biochemical, Zea mays; conditions: Table 12, normalized to reference SEQ ID NO:53
Protocol: as §1, §2, §3, §4, §7

[3] = biological target: T1, Arabidopsis HPPD (SEQ ID: 53) M335H, P336A, E363Q (Arabidopsis thaliana, UniProt P93836, E363Q/M335H/P336A); experiment: HPPD activity assay, in vitro characterization of HPPD mutants; format: biochemical; conditions: Table 15, Arabidopsis HPPD variant M335H, wild-type = 1
T1 construct: PCR-based site directed mutagenesis of pEXP5-NT/TOPO®-AtHPPD is done; His6 (N); made in house; host or cells: E. coli BL21 (DE3)
Protocol: as §1, §2, §3, §4
(§8) Inhibitors are dissolved in DMSO (dimethylsulfoxide) to a concentration of 0.5 mM. From this stock solution serial five-fold dilutions are prepared in DMSO, which are used in the assay. The respective inhibitor solution accounts for 1% of the assay volume. […] Activities are normalized by setting the uninhibited enzyme activity to 100%. IC50 values are calculated using non-linear regression.
(§9) Purified, mutant HPPD enzymes are obtained by the methods described above. Dose response and kinetic measurements are carried out using the described HPPD activity assay. Apparent michaelis constants (Km) and maximal reaction velocities (Vmax) are calculated by non-linear regression with the software GraphPad Prism 5 (Graph Pad Software, La Jolla, USA) using a substrate inhibition model. […] Weighted means (by standard error) of Km and IC50 values are calculated from at least three independent experiments.
(§10) Field performance of the optimized HPPD enzyme, which is used as a herbicide tolerance trait may depend not only on its lack of sensitivity towards HPPD inhibiting herbicides but also on its activity. To assess the potential performance of a herbicide tolerance trait a tolerance index (TI) is calculated using the following formula: […]
(§11) Easy comparison and ranking of each trait is enabled by normalizing tolerance indexes on Arabidopsis wild-type HPPD.

[4] = biological target: T2, Hordeum HPPD (SEQ ID: 2) G407C (Hordeum vulgare, UniProt O48604, A164G/G407C/R146V/R147D/R148G); experiment: as above; format: biochemical; conditions: Table 16, Hordeum wild-type = 1
T2 construct: His (N); made in house; host or cells: E. coli BL21 (DE3)
Protocol: as §1, §2, §3, §4, §8, §9, §10, §11

[5] = biological target: T3, Hordeum HPPD (SEQ ID: 2) L353M, P321R, V212I (Hordeum vulgare, UniProt O48604, L353M/P321R/V212I); experiment: as above; format: biochemical; conditions: Table 16, Hordeum wild-type = 1
T3 construct: His (N); made in house; host or cells: E. coli BL21 (DE3)
Protocol: as §1, §2, §3, §4, §8, §9, §10, §11

[6] = biological target: T4, Hordeum HPPD (SEQ ID: 2) F377L (Hordeum vulgare, UniProt O48604, A164G/F377L/R146V/R147D/R148G); experiment: as above; format: biochemical; conditions: Table 16, Hordeum wild-type = 1
T4 construct: His (N); made in house; host or cells: E. coli BL21 (DE3)
Protocol: as §1
After a preincubation of 30 min the reaction is started by adding 4-HPP to a final concentration of 0.05 mM. The reaction is allowed to proceed for 45 min at room temperature. The reaction is stopped by the addition of 50 μl of 4.5 M phosphoric acid. […]
as §3, §4
Inhibitors are dissolved in DMSO (dimethylsulfoxide) to a concentration of 0.5 mM. […] IC50 values are calculated using non-linear regression.
Purified, mutant HPPD enzymes are obtained by the methods described above. […] Weighted means (by standard error) of Km and IC50 values are calculated from at least three independent experiments. […]

T3 sequence (O48604 whole entry R146V/R147D/R148G/A164G/V212I/P321R/L353M): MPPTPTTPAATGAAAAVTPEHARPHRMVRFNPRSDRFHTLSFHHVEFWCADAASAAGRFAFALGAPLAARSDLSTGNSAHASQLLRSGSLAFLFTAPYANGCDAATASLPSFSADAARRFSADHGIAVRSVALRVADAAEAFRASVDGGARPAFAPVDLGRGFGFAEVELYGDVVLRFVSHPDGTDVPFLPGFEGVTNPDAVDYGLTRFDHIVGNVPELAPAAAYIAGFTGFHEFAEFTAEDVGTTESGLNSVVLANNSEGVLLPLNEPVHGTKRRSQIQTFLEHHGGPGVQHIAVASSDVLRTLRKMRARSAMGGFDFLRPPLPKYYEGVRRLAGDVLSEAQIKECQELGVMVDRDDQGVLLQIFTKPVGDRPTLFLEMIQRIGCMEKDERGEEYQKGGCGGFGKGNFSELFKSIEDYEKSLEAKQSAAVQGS
T1 sequence (P93836 whole entry M335H/P336A/E363Q): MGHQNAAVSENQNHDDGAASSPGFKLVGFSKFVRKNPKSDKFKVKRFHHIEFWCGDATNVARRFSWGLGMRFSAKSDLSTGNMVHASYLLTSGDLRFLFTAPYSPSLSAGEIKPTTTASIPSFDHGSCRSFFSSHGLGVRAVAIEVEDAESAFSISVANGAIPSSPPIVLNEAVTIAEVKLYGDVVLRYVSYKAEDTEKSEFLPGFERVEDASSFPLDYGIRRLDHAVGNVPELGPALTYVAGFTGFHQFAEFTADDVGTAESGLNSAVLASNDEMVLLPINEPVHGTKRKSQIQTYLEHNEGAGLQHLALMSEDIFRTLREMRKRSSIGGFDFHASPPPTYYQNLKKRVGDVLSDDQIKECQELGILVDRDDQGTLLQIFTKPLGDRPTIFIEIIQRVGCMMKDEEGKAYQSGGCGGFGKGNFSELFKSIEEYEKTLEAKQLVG
T2 sequence (O48604 whole entry R146V/R147D/R148G/A164G/G407C): as the sequence (O48604 whole entry R146V/R147D/R148G/A164G/V212I/P321R/L353M) above, with I212V, R321P, M353L, G407C counted along it
T4 sequence (O48604 whole entry R146V/R147D/R148G/A164G/F377L): as the sequence (O48604 whole entry R146V/R147D/R148G/A164G/V212I/P321R/L353M) above, with I212V, R321P, M353L, F377L counted along it

Compound	TI Inhibitor 1 (normalized tolerance index) [1]	TI Inhibitor 1 (normalized tolerance index) [2]	TI Inhibitor 1 (normalized tolerance index) (Synechococcus HPPD)	TI Inhibitor 1 (normalized tolerance index) (Picrophilus HPPD)	TI Inhibitor 1 (normalized tolerance index) (HPPD Seq ID 67)	TI Inhibitor 1 (normalized tolerance index) (HPPD Seq ID 69)	TI Inhibitor 1 (normalized tolerance index) [3]	TI Inhibitor 1 (normalized tolerance index) [4]	TI Inhibitor 1 (normalized tolerance index) [5]	TI Inhibitor 2 (normalized tolerance index) [6]
COc1no[nH]/c1=N/C(=O)c1ccc2c(c1Cl)S(=O)(=O)CCC2(C)C [Inhibitor 1, (NE)-8-chloro-N-(4-methoxy-1,2,5-oxadiazol-3-ylidene)-4,4-dimethyl-1,1-dioxo-2,3-dihydrothiochromene-7-carboxamide]	25.2	1.2	11.9	0.4	107.3	13.2	0.3	3.3	2.9	
Cc1c(C(=O)Nc2nnnn2C)ccc2c1C(=O)C(C)(C)CS2(=O)=O [Inhibitor 2, 3,3,5-trimethyl-N-(1-methyltetrazol-5-yl)-1,1,4-trioxo-2H-thiochromene-6-carboxamide]										4.6
